Assay results published in ChEMBL document CHEMBL1140917, “Structure-activity relationships of antitubercular nitroimidazoles. 1. Structural features associated with aerobic and anaerobic activities of 4- and 5-nitroimidazoles” (2009).

Tests used:
Format in all cases: functional
[1] = test system: Mycobacterium tuberculosis; test: Antimycobacterial activity against Mycobacterium tuberculosis with deazaflavin-dependent nitroreductase mutant
[2] = test system: Mycobacterium tuberculosis; test: Antimycobacterial activity against Mycobacterium tuberculosis with deazaflavin-dependent nitroreductase mutant under anaerobic condition
[3] = test system: Mycobacterium tuberculosis; test: Antimycobacterial activity against Mycobacterium tuberculosis with cofactor F420 mutant

Structure (SMILES)	MIC [1] [µM]	MAC [2] [µM]	MIC [3] [µM]
CO[C@@H]1COc2nc([N+](=O)[O-])cn2C1	>100	250	>100
COc1ncc([N+](=O)[O-])n1CCO	>100	>500	>100
O=[N+]([O-])c1cnc2n1C[C@H](OCc1ccc(OC(F)(F)F)cc1)CO2	>100	62.5	>100
O=[N+]([O-])c1cnc2n1C[C@@H](O)CC2	>100	>100	>100
O=[N+]([O-])c1cn2c(n1)OC[C@@H](O)C2	>100	500	>100
COc1nc([N+](=O)[O-])cn1CCOCc1ccc(OC(F)(F)F)cc1	>100	250	>100
O=[N+]([O-])c1cnc2n1C[C@H](O)CO2	>100	125	>100
Cc1ncc([N+](=O)[O-])n1CCOCc1ccc(OC(F)(F)F)cc1	>100	125	>100
O=[N+]([O-])c1cn2c(n1)C=C[C@@H](OCc1ccc(OC(F)(F)F)cc1)C2	>100	62.5	>100
Cc1nc([N+](=O)[O-])cn1CCOCc1ccc(OC(F)(F)F)cc1	>100	>500	>100
O=[N+]([O-])c1cn2c(n1)CC[C@@H](OCc1ccc(OC(F)(F)F)cc1)C2	>100	250	>100
Cc1nc([N+](=O)[O-])cn1CCO	>100	>500	>100
O=[N+]([O-])c1cnc2n1C[C@H](O)CC2	>100	>500	>100
FC(F)(F)Oc1ccc(CO[C@@H]2COc3nccn3C2)cc1	>100	>500	>100
Cc1ncc([N+](=O)[O-])n1CCO [METRONIDAZOLE]	>100		>100
O=[N+]([O-])c1cn2c(n1)OC[C@@H](OCc1ccc(OC(F)(F)F)cc1)C2 [PRETOMANID]	>100	>500	>100
